Test results as given in patent publication US20250275993A1, “GLYCOSYLATION INHIBITORS AS THERAPEUTICS FOR STROKE” (The Regents of the University of California, priority 2022, published 2025).

Key:
[1] = system: human retinal microvascular EC (hRMECs); assay: hRMEC proliferation assay; type: cell-based
Procedure: (§1) Proliferation assays with BCECs and BRECs were performed. Log-phase growing BCECs or BRECs (passage <10) were trypsinized, re-suspended and seeded in 96-well plates (no coating) in low-glucose DMEM supplemented with 10% bovine calf serum, 2 mM glutamine, and antibiotics (growth medium), at a density of 1200-1500 cells per well in 200 μl volume. All reagents were added at the indicated final concentrations. After 3-6 days, cells were incubated with AlamarBlue for 4 hrs. Fluorescence was measured at 530 nm excitation wavelength and 590 nm emission wavelength. The experiments were repeated at least three times. To create a hypoxic condition, cells were placed in a hypoxia incubator with a mixture of gas consisting of 1% O2, 5% CO2 and 94% N2. On each 96-well plate, untreated and VEGF-treated (10/ng/ml) wells were included to monitor plate-to-plate variations. 20% methanol or 0.05% DMSO served as negative controls. […] Human RMVECs and human adult DMVECs were split into Gelatin-coated 96 wells (2000 cells per well) in low glucose DMEM containing 10% FBS. 1200 cells/well was set up for proliferation assay in low glucose media containing 0.5% FBS. Data was collected at day 4 or 5. HUVEC (p7-10) were grown on gelatin-coated plate until it reached 70-80% confluency.

[2] = system: dermal microvascular endothelial cells (hDMVECs); assay: hDMVEC proliferation assay; type: cell-based, human
Procedure: as §1
(§2) Proliferation assays with fibroblasts were done in low-glucose DMEM containing 1% FBS, with or without 10 ng/ml bFGF, or 100 ng/ml human EGF and the assay was ended at day 3. ARPE-19 cells were gently lifted with 0.025% trypsin and plated in RtEGM media (Clonetics) containing 2% FBS, L-glutamine, human bFGF and GA-1000. Once cells were attached to plates, serum-free RtEGM media was used to maintain the cultures. For proliferation assays, 1500 human RPE cells were plated into 96-well plates in low-glucose DMEM containing 1% FBS. A673, U87MG, Calu6 and AML12 cells were grown until confluent and were then harvested and re-suspended in appropriate assay media. […] Four days later, tumor cell growth was measured by the MTS assay (Promega, Madison, WI), a colorimetric assay that measures metabolic activity of viable cells. […]

Calu6 = Calu6 proliferation assay; type: cell-based; conditions: ManN
Procedure: as §2, with “media. For proliferation assays, cells were plated at the density of 1000-2000 cells/well in low-glucose DMEM containing 5% FBS or otherwise stated. Bovine pituitary cells (pituitary folliculostellate cells) were isolated as previously described. For proliferation assays with human epidermal keratinocytes, human DMVECs and human dermal fibroblast cells, 1000 cells/well were plated in low-glucose DMEM containing 1% FBS with or without various growth factors. The assay was ended at day 3 for bovine pituitary cells and at day 4 for all the other cell types.” for “media.”

skin wound = assay: Skin wound healing model (splinted wound); type: in vivo, mouse; conditions: topical 20 μg daily; mice; PBS group 81.5%
Excerpt: The model has been previously described. Briefly, C57BL/6 female mice (8-10 weeks old) were obtained from Jackson labs (Sacramento, CA). A fresh, full-thickness punch wound (4 mm diameter) using a punch (Acu Punch, Acuderm inc. Ft. Lauderdale, FL) splinted with a sterile neoprene ring (6-mm outer diameter and 4-mm inner diameter), fastened with 5-6 sutures (4-0 nylon) under the influence of Isoflurane was created on the back of the animal in a Class II Biological Safety Cabinet. For all surgical procedures, sterile technique was followed. Buprenorphine was given subcutaneously prior to awakening from anesthesia for anticipated pain. Mice were monitored until fully awake and were housed individually to minimize damage/biting/fighting to the surgical site. […] Treatment agents were prepared in PBS, sterile-filtered and 25 μl solution was applied daily directly to a wound bed for the first 4-5 days under the influence of Isoflurane, followed by daily observation. Wound closure was monitored by regular imaging and the wound area was quantified using ImageJ (National Institutes of Health, Bethesda, MD, USA). […] Epithelial gap was measured histomorphometrically using AxioVision LE Rel.4.4 software. […] Small vessels stained positive for CD31 were counted microscopically on 10 fields (20×) taken around the wound.

VEGFR2 on cell surface = assay: Biotinylation of surface proteins in BCECs; type: cell-based, bovine; conditions: ManN-treated BCECs
Procedure: BCECs were plated in 10 cm cell culture dishes 3 days prior to the cell surface protein isolation. Cells were washed three times with Dulbecco's PBS with CaCl2 and MgCl2, followed by a 30 min incubation with EZ-Link Sulfo-NHS-SS-Biotin (Pierce, Rockford, IL, USA; 0.5 mg/ml in Dulbecco) on ice. Cells were washed twice with Dulbecco and the non-reacted biotin was blocked with 20 mM glycine for 15 mins. To prevent the reduction of the disulfide bridge in the biotin molecule during the cell lysis process, a 100 μM oxidized glutathione (Sigma-Aldrich, St. Louis, MO) was added in the last wash solution. For cell lysis 500 μL of lysis buffer (2% NP-40, 1% Triton X-100, 10% glycerol, 100 μM oxidized glutathione, EDTA free protease inhibitor tablet (Roche, Mannheim, Germany) in PBS was added to the cells. Lysed cell extracts were scraped off the plates and transferred to an Eppendorf tube followed by incubation on ice on a shaker for 30 mins. The cell extracts were incubated with 30 U of DNase (22° C. 50 mins, Roche, Mannheim, Germany) and centrifuged for 20 mins (20,800×g, at 4° C.) to pellet the insoluble material. The protein concentration of the supernatants was determined. Equal amounts of protein (−2 mg) from each extract were used for cell surface protein isolation. […]

## N[C@H](C=O)[C@@H](O)[C@H](O)[C@H](O)CO [ManN, 2-Amino-2-deoxy-D-mannose]
[1]; 5 mM ManN
  toxicity on hRMECs: minimal toxicity
[1]; with VEGF
  additivity with VEGF on hRMEC proliferation: dose-dependent additivity with VEGF
[2]; 5 mM ManN
  toxicity on hDMVECs: minimal toxicity
[2]; ManN alone
  hDMVECs growth, ManN by itself: stimulated
[2]; with VEGF
  additivity with VEGF on hDMVEC proliferation: dose-dependent additivity with VEGF
Calu6
  growth of Calu6: did not promote growth
Skin wound
  average closure of the wound on day 4: 75.6%
VEGFR2 on cell surface
  amount of VEGFR2 on cell surface: no changes
